# Experimental data reported in US20110009435A1, “HETERO BICYCLIC CARBOXAMIDE DERIVATIVES AND THEIR PHARMACEUTICAL USE AND COMPOSITIONS” (Pfizer, Inc., priority 2007, published 2011).
# Key:
# Assay type in all cases: biochemical
# Human recombinant MMP-15 = biological target: T1, Human recombinant MMP-15 (Homo sapiens, UniProt P51511); assay: In vitro MMP inhibition assay, MMP-15 catalytic domain (fluorogenic peptide substrate cleavage, Ki); conditions: human MMP-15, catalytic domain (CD); read-out: hMMP Ki 15/CD
# T1 construct: The catalytic domain of MMP-12 and MMP-15 enzymes were purchased commercially for these assays; purchased
# T1 sequence (P51511 132-304 limits assumed): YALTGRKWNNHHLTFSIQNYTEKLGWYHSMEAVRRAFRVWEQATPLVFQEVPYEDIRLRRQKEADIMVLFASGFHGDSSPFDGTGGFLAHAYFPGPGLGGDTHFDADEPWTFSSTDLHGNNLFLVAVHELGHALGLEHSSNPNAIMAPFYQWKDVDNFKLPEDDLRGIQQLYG
# Experimental: (§1) Matrix Metalloproteinase inhibitor compounds were analyzed in in vitro MMP Inhibition assays to determine their ability to inhibit the MMP cleavage of peptide substrates. Inhibition constants (Ki) were calculated from the assayed compound-MMP interactions.
# (§2) Human recombinant MMP-1, MMP-2, MMP-3, MMP-7, MMP-9, MMP-12, MMP-13, MMP-14 and MMP-15 were used in these assays. The enzymes are prepared following known laboratory procedures. Protocols for the preparation and use of these enzymes are available in the scientific literature. See, e.g., Enzyme Nomenclature (Academic Press, San Diego, Calif., 1992) and the citations therein. See also Frije et al., J. Biol. Chem., 26(24), 16766-73 (1994).
# (§3) The catalytic domain of MMP-12 and MMP-15 enzymes were purchased commercially for these assays.
# (§4) The fluorogenic, methoxycoumarin-containing polypeptide substrate MCA-ArgProLeuGlyLeuDpaAlaArgGluArgNH2 was used as the MMP substrate in the MMP inhibition assays for human recombinant MMP-1, MMP-2, MMP-7, MMP-9, MMP-12, MMP-13, MMP-14 and MMP-15. Here, “MCA” is 7-methoxycoumarin-4-yl acetyl and “Dpa” is 3-(2,4-dinitrophenyl)-L-2,3-di-aminopropionyl group. In the absence of MMP inhibitory activity, the substrate is cleaved at the Gly-Leu peptide bond. The cleavage separates the highly fluorogenic peptide from the 2,4-dinitrophenyl quencher, resulting in an increase of fluorescent intensity.
# (§5) For the human MMP-1, MMP-2, MMP-7, MMP-9, MMP-12, MMP-13, MMP-14 and MMP-15 assays, dilutions of the inhibitors (or salts thereof) were prepared in 100% dimethyl sulfoxide (DMSO). The stock solutions were diluted in Buffer A (100 mM Tris-HCl, 100 mM NaCl, 10 mM CaCl2, 0.005% polyoxyethylene 23 lauryl ether, pH 7.5) to obtain solutions with different compound concentrations, i.e., assay solutions with different concentrations of the assayed MMP inhibitory compound in 1% DMSO. The experiment controls contained the same amount of Buffer A/DMSO as the assayed sample, but contained no inhibitor.
# (§6) To determine Ki, the inhibitor samples are incubated at room temperature for 1 hr in the presence of enzyme and then 4 μM of appropriate MMP substrate was added, and samples were analyzed on a Tecan SpectraFlour Plus plate reader. The excitation wavelength is 330 nm, and the emission (fluorescence) wavelength is 420 nm. In the absence of MMP inhibitory activity, the substrate is cleaved at the Gly-Leu bond resulting in an increase of relative fluorescence. Inhibition is observed as a reduced rate of increase in relative fluorescence.
# (§7) The inhibitors are analyzed using a single low enzyme concentration with a single substrate concentration fixed at or below the Km. This protocol is a modification of method by Knight et al., FEBS Lett., 296(3), 263-266 (1992). Apparent inhibitory constants are determined by non-linear regression of reaction velocity as a function of inhibitor and enzyme concentration using Morrison's equation, as described by Kuzmic, Anal. Biochem. 286, 45-50 (2000). Modifications were made in the non-linear regression method to allow a common control reaction rate and effective enzyme concentration to be shared between all dose-response relationships on a given assay plate. Since the substrate concentration was chosen to be at or below the Km, the apparent Ki's from this analysis were reported as Ki's without correction for the influence of substrate.
# Human recombinant MMP-12 = biological target: T2, Human recombinant MMP-12 (Homo sapiens, UniProt P39900); assay: In vitro MMP inhibition assay, MMP-12 catalytic domain (fluorogenic peptide substrate cleavage, Ki); conditions: human MMP-12, catalytic domain (CD); read-out: hMMP Ki 12/CD
# T2 construct: The catalytic domain of MMP-12 and MMP-15 enzymes were purchased commercially for these assays; purchased
# T2 sequence (P39900 106-263 limits assumed): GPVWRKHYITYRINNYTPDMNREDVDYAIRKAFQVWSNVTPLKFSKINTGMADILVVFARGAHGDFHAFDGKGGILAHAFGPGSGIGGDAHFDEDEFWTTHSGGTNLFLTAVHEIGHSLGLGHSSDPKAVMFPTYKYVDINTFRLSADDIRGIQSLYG
# Experimental: as §1, §2, §3, §4, §5, §6, §7
# Human recombinant MMP-13 = biological target: T3, Human recombinant MMP-13 (Homo sapiens, UniProt P45452); assay: In vitro MMP inhibition assay, MMP-13 (fluorogenic peptide substrate cleavage, Ki); conditions: human MMP-13, full length (FL); read-out: hMMP Ki 13/FL
# T3 construct: made in house; host or cells: baculovirus expression (insect cells)
# Summary of the method: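 Baculovirus-expressed proenzyme, APMA- or trypsin-activated, preincubated 1 h at room temperature with inhibitor in pH 7.5 Tris/NaCl/CaCl2 buffer, 1% DMSO. Then 4 μM MCA/Dpa quenched peptide added; fluorescence rate read at 330/420 nm. Ki from Morrison-equation regression, substrate at or below Km, uncorrected.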
compound,measurement,setting,value
"COc1cccc(CNC(=O)c2nc3ccc(F)c(OCCC4CCN(C(=O)CO)CC4)c3c(=O)[nH]2)c1 [Example 34, 6-fluoro-5-[2-(1-glycoloylpiperidin-4-yl)ethoxy]-N-(3-methoxybenzyl)-4-oxo-3,4-dihydroquinazoline-2-carboxamide]",Ki,Human recombinant MMP-15,> 10 µM
same,Ki,Human recombinant MMP-12,6.53 µM
same,Ki,Human recombinant MMP-13,0.000118 µM
